Laboratory results: patent US7250417B2, “Arylmethyl triazolo- and imidazopyrazines as c-Met inhibitors” (Sugen Inc., priority 2003, dated 2007)
“And” between values parts separate entries of the source, which are not always exact repeats. Equal values may be shown once.

Each compound was assayed against T1, c-MET (purified GST fusion protein containing the Met kinase domain) (Homo sapiens, UniProt P08581) (assay: Met transphosphorylation assay (ELISA, poly(Glu,Tyr) 4:1 substrate)). Conditions: purified GST-Met kinase domain 10 ng/well.
T1 construct: Purified GST fusion protein containing the Met kinase domain, Sugen, Inc
Assay type: biochemical
Procedure: Met Transphosphorylation Assay
This assay is used to measure phosphotyrosine levels on a poly(glutamic acid:tyrosine (4:1)) substrate as a means for identifying agonists/antagonists of met transphosphorylation of the substrate.
• 1. […] PBS, Gibco Catalog #450-1300EB • 4. 50 mM HEPES • 5. […] Purified GST fusion protein containing the Met kinase domain, Sugen, Inc. • 7. TBST Buffer. • 8. 10% aqueous (MilliQue H2O) DMSO. • 9. […] 2× Kinase Dilution Buffer: for 100 ml, mix 10 mL 1 M HEPES at pH 7.5 with 0.4 mL 5% BSA/PBS, 0.2 mL 0.1 M sodium orthovanadate and 1 mL 5M sodium chloride in 88.4 mL dH2O. • 11. 4× ATP Reaction Mixture: for 10 mL, mix 0.4 mL 1 M manganese chloride and 0.02 mL 0.1 M ATP in 9.56 mL dH2O. • 12. 4× Negative Controls Mixture: for 10 mL, mix 0.4 mL 1 M manganese chloride in 9.6 mL dH2O. • 13. […] 500 mM EDTA. • 15. Antibody Dilution Buffer: for 100 mL, mix 10 mL 5% BSA/PBS, 0.5 mL 5% Camation Instant Milk® in PBS and 0.1 mL 0.1 M sodium orthovanadate in 88.4 mL TBST. • 16. Rabbit polyclonal antophosphotyrosine antibody, Sugen, Inc. • 17. Goat anti-rabbit horseradish peroxidase conjugated antibody, Biosource, Inc. • 18. ABTS Solution: for 1 L, mix 19.21 g citric acid, 35.49 g Na2HPO4 and 500 mg ABTS with sufficient dH2O to make 1 L. • 19. ABTS/H2O2: mix 15 mL ABST solution with 2ILL H2O2 five minutes before use. • 20. 0.2 M HCl Procedure: • 1. Coat ELISA plates with 2 μg Poly(Glu-Tyr) in 100 pL PBS, store overnight at 4° C. • 2. Block plate with 150 μL of 5% BSA/PBS for 60 min. • 3. Wash plate twice with PBS, once with 50 mM Hepes buffer pH 7.4. • 4. Add 50 μl of the diluted kinase to all wells. (Purified kinase is diluted with Kinase Dilution Buffer. Final concentration should be 10 ng/well.) • 5. Add 25 μL of the test compound (in 4% DMSO) or DMSO alone (4% in dH2O) for controls to plate. • 6. Incubate the kinase/compound mixture for 15 minutes. • 7. Add 25 μL of 40 mM MnCl2to the negative control wells. • 8. Add 25 μL ATP/MnCl2 mixture to the all other wells (except the negative controls). Incubate for 5 min. • 9. Add 25 μL 500 mM EDTA to stop reaction. • 10. Wash plate 3× with TBST. 11. Add 100 μL rabbit polyclonal anti-Ptyr diluted 1:10,000 in Antibody Dilution Buffer to each well. Incubate, with shaking, at room temperature for one hour. • 12. Wash plate 3× with TBST. • 13. […] Add 100 μL per well and incubate at room temperature, with shaking, for one hour. • 14. Wash plate 1× with PBS. • 15. Add 100 μl of ABTS/H2O2 solution to each well. • 16. If necessary, stop the development reaction with the addition of 100 μl of 0.2M HCl per well. • 17.

T1 sequence (P08581 1078-1345 limits assumed): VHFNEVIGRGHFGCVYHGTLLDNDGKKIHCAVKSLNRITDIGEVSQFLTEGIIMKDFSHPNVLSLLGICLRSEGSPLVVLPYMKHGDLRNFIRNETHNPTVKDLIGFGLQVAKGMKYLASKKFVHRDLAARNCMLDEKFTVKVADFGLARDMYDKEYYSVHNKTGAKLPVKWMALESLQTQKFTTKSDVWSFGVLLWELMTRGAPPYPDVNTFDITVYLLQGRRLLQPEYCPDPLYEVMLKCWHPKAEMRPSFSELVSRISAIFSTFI

Compound | IC50
Fc1ccc(Cn2nnc3ncc(-c4ccc(OCCN5CCOCC5)cc4)nc32)cc1 [Example 11, 1-(4-Fluoro-benzyl)-6-[4-(2-morpholin-4-yl-ethoxy)-phenyl]-1H-[1,2,3]triazolo[4,5-b]pyrazine] | 170 nM
Fc1ccc(Cn2nnc3ncc(-c4cccc(OCCN5CCOCC5)c4)nc32)cc1 [Example 10, 1-(4-Fluoro-benzyl)-6-[3-(2-morpholin-4-yl-ethoxy)-phenyl]-1H-[1,2,3]triazolo[4,5-b]pyrazine] | 1000 nM
Fc1ccc(Cn2nnc3ncc(Br)nc32)cc1 [Example 8, 6-Bromo-1-(4-fluoro-benzyl)-1H-[1,2,3]triazolo[4,5-b]pyrazine] | 310 nM and 1710 nM
Fc1ccc(Cn2nnc3ncc(-c4cc5ccccc5[nH]4)nc32)cc1 [Example 12, 1-(4-Fluoro-benzyl)-6-(1H-indol-2-yl)-1H-[1,2,3]triazolo[4,5-b]pyrazine] | 1150 nM
COc1ccc(Cn2cnc3ncc(Br)cc32)cc1 [Example 13, 6-Bromo-1-(4-methoxy-benzyl)-1H-imidazo[4,5-b]pyridine] | > 20000 nM
Oc1ccc(Cn2cnc3ncc(Br)cc32)cc1 [Example 14, 4-(6-Bromo-imidazo[4,5-b]pyridin-1-ylmethyl)-phenol] | 9600 nM
Fc1ccc(Cn2cnc3ncc(-c4ccc(OCCN5CCOCC5)cc4)nc32)cc1 [Example 7, 1-(4-Fluoro-benzyl)-6-[4-(2-morpholin-4-yl-ethoxy)-phenyl]-1H-imidazo[4,5-b]pyrazine] | > 20000 nM

Results, then the compound that gave them:

IC50 | Compound
> 20000 nM | Fc1ccc(Cn2cnc3ncc(-c4cccs4)nc32)cc1 [Example 4, 1-(4-Fluoro-benzyl)-6-thiophen-2-yl-1 H-imidazo[4,5-b]pyrazine]
160 nM | Fc1ccc(Cn2nnc3ncc(-c4cccs4)nc32)cc1 [Example 9, 1-(4-Fluoro-benzyl)-6-thiophen-2-yl-1H-[1,2,3]triazolo[4,5-b]pyrazine]
> 20000 nM | Fc1ccc(Cn2cnc3ncc(-c4ccc(F)cc4)nc32)cc1 [Example 5, 1-(4-Fluoro-benzyl)-6-(4-fluoro-phenyl)-1H-imidazo[4,5-b]pyrazine]
1790 nM | COc1ccc(Cn2cnc3ncc(-c4ccc(F)cc4)nc32)cc1 [Example 2, 6-(4-Fluoro-phenyl)-1-(4-methoxy-benzyl)-1H-imidazo[4,5-b]pyrazine]
150 nM | Oc1ccc(Cn2cnc3ncc(-c4cccs4)nc32)cc1 [Example 1, 4-(6-Thiophen-2-yl-imidazo[4,5-b]pyrazin-1-ylmethyl)-phenol]
> 20000 nM | Fc1ccc(Cn2cnc3ncc(-c4cccc(OCCN5CCOCC5)c4)nc32)cc1 [Example 6, 1-(4-Fluoro-benzyl)-6-[3-(2-morpholin-4-yl-ethoxy)-phenyl]-1H-imidazo[4,5-b]pyrazine]
